Test results published in patent US8445503B2, “Inhibitors of polo-like kinase” (Elan Pharmaceuticals, Inc., priority 2009, dated 2013).
Like-named read-outs stand apart in the source and are kept apart here.

Assays:
Format in all cases: biochemical
GST-PLK2 = target: T1, GST-PLK2 (Homo sapiens, UniProt Q9NYY3); assay: PLK TR-FRET peptide assay, PLK2; details: for IC50: read-out: Plk2 IC50; for PLK2 activity relative to the opposite enantiomer / other isomer: comparison of resolved enantiomers, used to assign absolute configuration
T1 construct: purchased CarnaBio

GST-PLK1 = GST-PLK1 (Homo sapiens, UniProt P53350); assay: PLK TR-FRET peptide assay, PLK1; details: read-out: Plk1 IC50
GST-PLK3 = target: T2, GST-PLK3 (Homo sapiens, UniProt Q9H4B4); assay: PLK TR-FRET peptide assay, PLK3
T2 construct: purchased CarnaBio

[1] = PLK TR-FRET peptide assay, GST-PLK2
[2] = PLK TR-FRET peptide assay, GST-PLK3; read-out: Plk3 IC50

Chain of GST-PLK1 (P53350 whole entry): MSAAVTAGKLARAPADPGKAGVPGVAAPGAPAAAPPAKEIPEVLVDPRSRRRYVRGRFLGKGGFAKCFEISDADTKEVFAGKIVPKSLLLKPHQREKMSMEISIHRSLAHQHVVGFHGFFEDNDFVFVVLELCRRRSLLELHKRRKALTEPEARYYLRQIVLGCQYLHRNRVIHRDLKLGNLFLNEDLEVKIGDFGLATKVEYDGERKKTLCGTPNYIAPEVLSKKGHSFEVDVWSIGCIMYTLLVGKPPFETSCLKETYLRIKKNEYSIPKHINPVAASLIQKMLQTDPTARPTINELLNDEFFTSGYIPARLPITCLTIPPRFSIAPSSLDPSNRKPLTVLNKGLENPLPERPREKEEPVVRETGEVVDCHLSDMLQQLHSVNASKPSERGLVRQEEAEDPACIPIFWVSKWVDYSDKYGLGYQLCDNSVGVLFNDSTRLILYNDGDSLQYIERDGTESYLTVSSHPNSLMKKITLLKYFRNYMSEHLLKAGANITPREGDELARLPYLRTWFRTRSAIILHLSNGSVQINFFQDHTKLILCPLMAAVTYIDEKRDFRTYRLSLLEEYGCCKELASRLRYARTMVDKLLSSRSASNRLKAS
T2 sequence (Q9H4B4 whole entry): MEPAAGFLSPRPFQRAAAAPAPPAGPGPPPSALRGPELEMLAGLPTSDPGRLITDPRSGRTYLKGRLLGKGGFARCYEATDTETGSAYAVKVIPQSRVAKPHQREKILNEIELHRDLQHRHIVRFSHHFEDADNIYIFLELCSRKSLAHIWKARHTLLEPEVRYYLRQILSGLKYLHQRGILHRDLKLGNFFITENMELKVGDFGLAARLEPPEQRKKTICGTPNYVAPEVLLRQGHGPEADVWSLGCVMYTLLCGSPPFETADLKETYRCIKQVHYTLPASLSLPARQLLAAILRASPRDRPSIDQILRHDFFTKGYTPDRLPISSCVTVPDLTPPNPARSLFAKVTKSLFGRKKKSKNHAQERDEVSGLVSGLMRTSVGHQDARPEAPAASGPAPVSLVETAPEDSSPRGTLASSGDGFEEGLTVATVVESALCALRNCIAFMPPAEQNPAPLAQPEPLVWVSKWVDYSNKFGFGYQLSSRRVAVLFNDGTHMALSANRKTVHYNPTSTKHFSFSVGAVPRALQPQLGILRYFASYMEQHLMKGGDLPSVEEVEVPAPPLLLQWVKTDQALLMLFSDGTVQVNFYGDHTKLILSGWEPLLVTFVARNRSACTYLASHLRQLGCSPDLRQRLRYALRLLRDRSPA
T1 sequence (Q9NYY3 whole entry): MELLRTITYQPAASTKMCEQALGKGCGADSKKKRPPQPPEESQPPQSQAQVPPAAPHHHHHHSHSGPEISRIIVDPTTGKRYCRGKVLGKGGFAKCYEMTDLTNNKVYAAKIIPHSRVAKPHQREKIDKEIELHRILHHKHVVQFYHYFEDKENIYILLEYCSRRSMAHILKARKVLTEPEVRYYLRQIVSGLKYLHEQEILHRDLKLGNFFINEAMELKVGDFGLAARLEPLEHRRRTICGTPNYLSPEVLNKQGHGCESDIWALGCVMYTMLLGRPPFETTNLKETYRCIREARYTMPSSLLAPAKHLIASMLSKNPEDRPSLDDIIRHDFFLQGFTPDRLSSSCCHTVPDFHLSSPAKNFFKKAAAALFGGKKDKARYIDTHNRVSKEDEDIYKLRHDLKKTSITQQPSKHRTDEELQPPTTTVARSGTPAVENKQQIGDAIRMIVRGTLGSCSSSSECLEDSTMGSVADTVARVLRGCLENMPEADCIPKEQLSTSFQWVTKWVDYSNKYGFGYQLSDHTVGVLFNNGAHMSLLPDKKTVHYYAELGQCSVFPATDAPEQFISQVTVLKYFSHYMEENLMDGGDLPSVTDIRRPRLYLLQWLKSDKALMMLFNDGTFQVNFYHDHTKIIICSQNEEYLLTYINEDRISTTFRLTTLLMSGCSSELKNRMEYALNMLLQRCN

SMILES: CC[C@@H]1C(=O)N(C)c2cnc(-n3ccnc3-c3ccccc3)nc2N1c1cnn(C)c1 [Example 409, (R)-7-ethyl-5-methyl-8-(1-methyl-1H-pyrazol-4-yl)-2-(2-phenyl-1H-imidazol-1-yl)-7,8-dihydropteridin-6(5H)-one]
- IC50 (GST-PLK2; [1]): < 1 µM
- PLK2 activity relative to the opposite enantiomer / other isomer (GST-PLK2): more active compound
- IC50 (GST-PLK1): < 1 µM
- IC50 (GST-PLK3; [2]): 1 to 10 µM

SMILES: CC[C@@H]1C(=O)N(C)c2cnc(-n3cc(C(=O)N4CCOCC4)cn3)nc2N1C1CCCC1 [Example 41, (R)-8-cyclopentyl-7-ethyl-5-methyl-2-(4-(morpholine-4-carbonyl)-1H-pyrazol-1-yl)-7,8-dihydropteridin-6(5H)-one]
- IC50 (GST-PLK2; [1]): 1 to 10 µM
- IC50 (GST-PLK1): 1 to 10 µM
- IC50 (GST-PLK3; [2]): 10 to 50 µM

SMILES: CC[C@@H]1C(=O)N(C)c2cnc(-c3nccnc3-c3ccccc3)nc2N1C1CCCC1 [Example 138, (R)-8-cyclopentyl-7-ethyl-5-methyl-2-(3-phenylpyrazin-2-yl)-7,8-dihydropteridin-6(5H)-one]
- IC50 (GST-PLK2): < 1 µM
- IC50 (GST-PLK1): < 1 µM
- IC50 (GST-PLK3; read-out: Plk3 IC50; PLK TR-FRET peptide assay, GST-PLK3): < 1 µM

SMILES: CC[C@@H]1C(=O)N(C)c2cnc(-n3ccnc3)nc2N1C(C)C [Example 22, (R)-7-ethyl-2-(1H-imidazol-1-yl)-8-isopropyl-5-methyl-7,8-dihydropteridin-6(5H)-one]
- IC50 (GST-PLK2; [1]): < 1 µM
- IC50 (GST-PLK1): 1 to 10 µM
- IC50 (GST-PLK3; [2]): > 50 µM

SMILES: CC[C@]12COCCN1c1nc(-c3snnc3-c3ccc(F)cc3F)ncc1N(C)C2=O [Example 398, (R)-2-(4-(2,4-difluorophenyl)-1,2,3-thiadiazol-5-yl)-6a-ethyl-5-methyl-6a,7,9,10-tetrahydro-[1,4]oxazino[3,4-h]pteridin-6(5H)-one]
- IC50 (GST-PLK2; [1]): > 50 µM
- IC50 (GST-PLK1): > 50 µM
- IC50 (GST-PLK3; [2]): > 50 µM

SMILES: CC[C@@H]1C(=O)N(C)c2cnc(-n3ccnc3-c3ncccn3)nc2N1C1CCC1 [Example 183, (R)-8-cyclobutyl-7-ethyl-5-methyl-2-(2-(pyrimidin-2-yl)-1H-imidazol-1-yl)-7,8-dihydropteridin-6(5H)-one]
- IC50 (GST-PLK2; [1]): < 1 µM
- IC50 (GST-PLK1): 1 to 10 µM
- IC50 (GST-PLK3; [2]): 10 to 50 µM

SMILES: CC[C@@]12COCCN1c1nc(-c3ccncc3-c3ccccc3)ncc1N(C)C2=O [Example 395]
- IC50 (GST-PLK2; [1]): < 1 µM
- IC50 (GST-PLK1): < 1 µM
- IC50 (GST-PLK3; [2]): 1 to 10 µM

SMILES: CC[C@@]12CCCN1c1nc(-n3ncnc3-c3ccccc3)ncc1N(C)C2=O [Example 189, (S)-6a-ethyl-5-methyl-2-(5-phenyl-1H-1,2,4-triazol-1-yl)-6a,7,8,9-tetrahydropyrrolo[2,1-h]pteridin-6(5H)-one]
- IC50 (GST-PLK2; [1]): < 1 µM
- IC50 (GST-PLK1): 1 to 10 µM
- IC50 (GST-PLK3; [2]): 1 to 10 µM

SMILES: CC[C@@H]1C(=O)N(C)c2cnc(-c3cnoc3-c3ccccc3)nc2N1C1CCCC1 [Example 133, (R)-8-cyclopentyl-7-ethyl-5-methyl-2-(5-phenylisoxazol-4-yl)-7,8-dihydropteridin-6(5H)-one]
- IC50 (GST-PLK2; [1]): < 1 µM
- IC50 (GST-PLK1): < 1 µM
- IC50 (GST-PLK3; [2]): < 1 µM

SMILES: CN1C(=O)C23CCC(CC2)N3c2nc(-n3ccnc3-c3ccccc3)ncc21 [Example 308, 5-methyl-2-(2-phenyl-1H-imidazol-1-yl)-8,9-dihydro-7H-6a,9-ethanopyrrolo[2,1-h]pteridin-6(5H)-one]
- IC50 (GST-PLK2; [1]): 1 to 10 µM
- IC50 (GST-PLK1): 10 to 50 µM
- IC50 (GST-PLK3; [2]): > 50 µM

SMILES: CC[C@@]12COCCN1c1nc(-c3cn[nH]c3-c3nccs3)ncc1N(C)C2=O [Example 344, (S)-6a-ethyl-5-methyl-2-(5-(thiazol-2-yl)-1H-pyrazol-4-yl)-6a,7,9,10-tetrahydro-[1,4]oxazino[3,4-h]pteridin-6(5H)-one]
- IC50 (GST-PLK2; [1]): < 1 µM
- PLK2 activity relative to the opposite enantiomer / other isomer (GST-PLK2): more active compound
- IC50 (GST-PLK1): > 50 µM
- IC50 (GST-PLK3; [2]): 10 to 50 µM

SMILES: CC[C@@H]1C(=O)N(C)c2cnc(-n3ccnc3-c3cnccn3)nc2N1C1CCOCC1 [Example 140, (R)-7-ethyl-5-methyl-2-(2-(pyrazin-2-yl)-1H-imidazol-1-yl)-8-(tetrahydro-2H-pyran-4-yl)-7,8-dihydropteridin-6(5H)-one]
- IC50 (GST-PLK2; [1]): < 1 µM
- IC50 (GST-PLK1): 1 to 10 µM
- IC50 (GST-PLK3; [2]): > 50 µM

SMILES: CC[C@@H]1C(=O)N(C)c2cnc(-c3ccn(C)c(=O)c3)nc2N1C1CCCC1 [Example 19, (R)-8-cyclopentyl-7-ethyl-5-methyl-2-(1-methyl-2-oxo-1,2-dihydropyridin-4-yl)-7,8-dihydropteridin-6(5H)-one]
- IC50 (GST-PLK2; [1]): < 1 µM
- IC50 (GST-PLK1): < 1 µM
- IC50 (GST-PLK3; [2]): 10 to 50 µM

SMILES: CC[C@@H]1C(=O)N(C)c2cnc(-n3cnc(CCN)c3)nc2N1C1CCCC1 [Example 62, (R)-2-(4-(2-aminoethyl)-1H-imidazol-1-yl)-8-cyclopentyl-7-ethyl-5-methyl-7,8-dihydropteridin-6(5H)-one]
- IC50 (GST-PLK2; [1]): < 1 µM
- IC50 (GST-PLK1): 10 to 50 µM
- IC50 (GST-PLK3; [2]): 10 to 50 µM

SMILES: CC[C@@H]1C(=O)N(C)c2cnc(-c3scnc3-c3ccc(F)cc3)nc2N1C(C)C [Example 319, (R)-7-ethyl-2-(4-(4-fluorophenyl)thiazol-5-yl)-8-isopropyl-5-methyl-7,8-dihydropteridin-6(5H)-one]
- IC50 (GST-PLK2; [1]): < 1 µM
- IC50 (GST-PLK1): 1 to 10 µM
- IC50 (GST-PLK3; [2]): 1 to 10 µM

SMILES: CCC1C(=O)N(C)c2cnc(-n3ccnc3-c3ccccc3)nc2N1N (stereo not shown) [Example 278, 8-amino-7-ethyl-5-methyl-2-(2-phenyl-1H-imidazol-1-yl)-7,8-dihydropteridin-6(5H)-one]
- IC50 (GST-PLK2; [1]): < 1 µM
- IC50 (GST-PLK1): 10 to 50 µM
- IC50 (GST-PLK3; [2]): 10 to 50 µM

SMILES: CC[C@@]12CCCN1c1nc(-n3ccnc3-c3ccccn3)ncc1N(C)C2=O [Example 145, (S)-6a-ethyl-5-methyl-2-(2-(pyridin-2-yl)-1H-imidazol-1-yl)-6a,7,8,9-tetrahydropyrrolo[2,1-h]pteridin-6(5H)-one]
- IC50 (GST-PLK2; [1]): 1 to 10 µM
- IC50 (GST-PLK1): 10 to 50 µM
- IC50 (GST-PLK3; [2]): 10 to 50 µM

SMILES: CC[C@@H]1C(=O)N(C)c2cnc(-n3ccnc3N3CCOC3=O)nc2N1C1CCCC1 [Example 78, (R)-3-(1-(8-cyclopentyl-7-ethyl-5-methyl-6-oxo-5,6,7,8-tetrahydropteridin-2-yl)-1H-imidazol-2-yl)oxazolidin-2-one]
- IC50 (GST-PLK2; [1]): < 1 µM
- IC50 (GST-PLK1): 1 to 10 µM
- IC50 (GST-PLK3; [2]): 10 to 50 µM

SMILES: CC[C@@H]1C(=O)N(C)c2cnc(-c3cncnc3-c3ccccc3)nc2N1C1CCCC1 [Example 132, (R)-8-cyclopentyl-7-ethyl-5-methyl-2-(4-phenylpyrimidin-5-yl)-7,8-dihydropteridin-6(5H)-one]
- IC50 (GST-PLK2; [1]): < 1 µM
- IC50 (GST-PLK1): < 1 µM
- IC50 (GST-PLK3; [2]): < 1 µM

SMILES: CC[C@]12COCCN1c1nc(-n3ccnc3-c3ccc(F)cn3)ncc1N(C)C2=O [Example 381, (R)-6a-ethyl-2-(2-(5-fluoropyridin-2-yl)-1H-imidazol-1-yl)-5-methyl-6a,7,9,10-tetrahydro-[1,4]oxazino[3,4-h]pteridin-6(5H)-one]
- IC50 (GST-PLK2; [1]): > 50 µM
- IC50 (GST-PLK1): > 50 µM
- IC50 (GST-PLK3; [2]): > 50 µM

SMILES: CC[C@@]12COCCN1c1nc(-c3snnc3-c3ccc(F)cn3)ncc1N(C)C2=O [Example 415, (S)-6a-ethyl-2-(4-(5-fluoropyridin-2-yl)-1,2,3-thiadiazol-5-yl)-5-methyl-6a,7,9,10-tetrahydro-[1,4]oxazino[3,4-h]pteridin-6(5H)-one]
- IC50 (GST-PLK2; [1]): 1 to 10 µM
- IC50 (GST-PLK1): > 50 µM
- IC50 (GST-PLK3; [2]): > 50 µM

SMILES: CC[C@]12COCCN1c1nc(-c3cn[nH]c3-c3nccs3)ncc1N(C)C2=O [Example 345, (R)-6a-ethyl-5-methyl-2-(5-(thiazol-2-yl)-1H-pyrazol-4-yl)-6a,7,9,10-tetrahydro-[1,4]oxazino[3,4-h]pteridin-6(5H)-one]
- IC50 (GST-PLK2; [1]): 10 to 50 µM
- IC50 (GST-PLK1): > 50 µM
- IC50 (GST-PLK3; [2]): > 50 µM

SMILES: CC[C@@H]1C(=O)N(C)c2cnc(-n3ccnc3-c3ccncc3)nc2N1C1CCC1 [Example 81, (R)-8-cyclobutyl-7-ethyl-5-methyl-2-(2-(pyridin-4-yl)-1H-imidazol-1-yl)-7,8-dihydropteridin-6(5H)-one]
- IC50 (GST-PLK2; [1]): < 1 µM
- IC50 (GST-PLK1): 1 to 10 µM
- IC50 (GST-PLK3; [2]): 10 to 50 µM

SMILES: CC[C@@H]1C(=O)N(C)c2cnc(-n3ccnc3-c3cccnn3)nc2N1C(C)C [Example 152, (R)-7-ethyl-8-isopropyl-5-methyl-2-(2-(pyridazin-3-yl)-1H-imidazol-1-yl)-7,8-dihydropteridin-6(5H)-one]
- IC50 (GST-PLK2; [1]): < 1 µM
- IC50 (GST-PLK1): 10 to 50 µM
- IC50 (GST-PLK3; [2]): > 50 µM

SMILES: CC[C@@]12CCCN1c1nc(-n3ccnc3-c3cnccn3)ncc1N(C)C2=O [Example 144, (S)-6a-ethyl-5-methyl-2-(2-(pyrazin-2-yl)-1H-imidazol-1-yl)-6a,7,8,9-tetrahydropyrrolo[2,1-h]pteridin-6(5H)-one]
- IC50 (GST-PLK2; [1]): 1 to 10 µM
- IC50 (GST-PLK1): > 50 µM
- IC50 (GST-PLK3; [2]): > 50 µM

SMILES: CC[C@@H]1C(=O)N(C)c2cnc(-n3ncnc3-c3ccccc3)nc2N1C(C)C [Example 195, (R)-7-ethyl-8-isopropyl-5-methyl-2-(5-phenyl-1H-1,2,4-triazol-1-yl)-7,8-dihydropteridin-6(5H)-one]
- IC50 (GST-PLK2; [1]): < 1 µM
- IC50 (GST-PLK1): < 1 µM
- IC50 (GST-PLK3; [2]): < 1 µM

SMILES: CC[C@@]12CN(C)CCN1c1nc(-n3ccnc3-c3ccccc3)ncc1N(C)C2=O [Example 374, (S)-6a-ethyl-5,8-dimethyl-2-(2-phenyl-1H-imidazol-1-yl)-'7,8,9,10-tetrahydro-5H-pyrazino[2,1-h]pteridin-6(6aH)-one]
- IC50 (GST-PLK2; [1]): < 1 µM
- PLK2 activity relative to the opposite enantiomer / other isomer (GST-PLK2): more active compound
- IC50 (GST-PLK1): > 50 µM
- IC50 (GST-PLK3; [2]): 10 to 50 µM

SMILES: CC[C@@]12COCCN1c1nc(-n3ccnc3-c3ccc(F)cn3)ncc1N(C)C2=O [Example 380, (S)-6a-ethyl-2-(2-(5-fluoropyridin-2-yl)-1H-imidazol-1-yl)-5-methyl-6a,7,9,10-tetrahydro-[1,4]oxazino[3,4-h]pteridin-6(5H)-one]
- IC50 (GST-PLK2; [1]): < 1 µM
- PLK2 activity relative to the opposite enantiomer / other isomer (GST-PLK2): more active compound
- IC50 (GST-PLK1): > 50 µM
- IC50 (GST-PLK3; [2]): > 50 µM
